The assay concerns fecal short-chain fatty acids. The experiment in a line: Fecal short-chain fatty acids of mice with hyperuricemia. The format is in vivo. As to conditions: feces at the end of the experiment. The protocol: 24 healthy male KM mice with the weight of 38 to 44 g were randomly divided into four groups after a week of acclimatization, namely a control group, a hyperuricemia model group, an L. gasseri CCFM1133 intervention group (CCFM1133) and an allopurinol intervention group (allopurinol). Except the control group, 500 mg/kg BW hypoxanthine was given to the other groups every day by intragastric administration, and 100 mg/kg BW oteracil potassium was intraperitoneally injected to the other groups every day. At 1 h before processing with hypoxanthine and oteracil potassium, 0.4 mL of 30 g/L sucrose (a control solvent) was given to the control group and the hyperuricemia model group, L. gasseri CCFM1133 bacterial suspension (30 g/L sucrose solution containing L. gasseri CCFM1133 thallus) with the concentration of 1×10^9 CFU/mouse was given to the L. gasseri CCFM1133 intervention group, and 5 mg/kg BW allopurinol was given to the allopurinol group. […]
The short-chain fatty acids were separated by using an Rtx-Wax column. The short-chain fatty acids (acetic acid, propionic acid, isobutyric acid, butyric acid, isovaleric acid and valeric acid) were detected in a full scanning mode (the mass-to-charge ratio scanning range is 33 to 110). Characteristic ions of analyte standards were selected for quantitative analysis.

Structures are written as SMILES.

In the case of `Oc1ncnc2[nH]ncc12` [allopurinol], the “Effect on fecal short-chain fatty acid levels (acetic, propionic, isobutyric, butyric, isovaleric and valeric acid)” value is recorded as “does not have much of the effect”.
